In patent US20240100065A1, “METHODS FOR TREATING RECEPTOR-INTERACTING PROTEIN KINASE 1-MEDIATED DISEASES” (Genzyme Corporation, priority 2022, published 2024):
“Also recorded” adds a separate entry of the source.

Assay: Plasma pharmacokinetics after single and repeated oral doses
Assay type: in vivo, healthy adult participants (human)
Conditions: for AUC ratio, point estimate / AUClast ratio, point estimate / Cmax ratio, point estimate: Part 1a fasted
Method: In Part 1a, plasma samples were collected before dosing and at 10 post-dose timepoints on Day 1 (30 minutes, 1 hour, followed by every hour until 6 hours, and then every 2 hours until 12 hours), and single samples on Day 2 (at 24 hours) and Day 3 (at 48 hours). In Part 1b, timepoints included at least pre-dose and at 10 post-dose timepoints, including plasma sampling at the same time of CSF sampling. In Part 2, on Day 1 and Day 14, plasma samples were collected at pre-dose and at 10 to 11 post-dose timepoints. In addition, plasma samples were collected on Days 2, 3, 5, 7, 11, 15, 16, and 17.
PK population included all participants exposed to Compound 1 with no major or critical deviations related to Compound 1 and for whom PK data were considered sufficient and interpretable. PK parameters were summarized by descriptive statistics for each dose level group. Distribution of Tmax values was represented by histogram plots for each dose level group. In Part 1a, dose proportionality was assessed using a linear model on Cmax, AUClast and AUC. In Part 2, all PK analyses were performed separately for each regimen (OD and BID). Steady state was assessed on Ctrough using a non-linear model. Accumulation was assessed using a linear model on log-transformed accumulation ratio. Dose proportionality was assessed using a power model on Cmax and AUCtau on Day 1 and Day 14, separately. Variance components of log-transformed Cmax and AUCtau were estimated using a linear model. In Part 1b, CSF concentration was described by dose level group and CSF to plasma unbound concentration ratios calculated were described in the same way. 4β-hydroxycholesterol on Day 14 versus Day 1 pre-dose concentration ratios were summarized using descriptive statistics by dose level group and point estimates with 90% confidence interval (90% CI) for the geometric mean of the log-transformed Day14/Day1 ratio was calculated in Part 2.

[1] = 20 mg vs. 10 mg (dose increase = 2)
[2] = 30 mg vs. 10 mg (dose increase = 3)
[3] = 30 mg vs. 20 mg (dose increase = 1.5)
[4] = 40 mg vs. 10 mg (dose increase = 4)
[5] = 40 mg vs. 20 mg (dose increase = 2)
[6] = 40 mg vs. 30 mg (dose increase = 1.33)

SMILES: CC(C)(C(=O)N1CCOc2c(C#N)cncc2C1)C(F)F [Compound 1, 4-(3,3-difluoro-2,2-dimethyl-propanoyl)-3,5-dihydro-2H-pyrido[3,4-f] [1,4]oxazepine-9-carbonitrile]
- Accumulation ratio (AUC0-24h), Day 14/Day 1 (10 mg QD): 1.31
- Accumulation ratio (Cmax), Day 14/Day 1 (10 mg QD): 1.00
- Accumulation ratio (AUC0-12h), Day 14/Day 1 (15 mg BID): 1.45
- Accumulation ratio (Cmax), Day 14/Day 1 (15 mg BID): 1.24
- Accumulation ratio (AUC0-12h), Day 14/Day 1 (20 mg BID): 1.63
- Accumulation ratio (Cmax), Day 14/Day 1 (20 mg BID): 1.71
- Accumulation ratio (AUC0-24h), Day 14/Day 1 (20 mg QD): 1.13
- Accumulation ratio (Cmax), Day 14/Day 1 (20 mg QD): 1.06
- Cmax (20 mg QD, MAD study, read-out: Mean observed Cmax at steady state): 860 nM
- Within-subject variability for AUCtau (BID cohorts): 11.3%
- Within-subject variability for Cmax (BID cohorts): 17.9%
- Total variability for AUCtau (BID dosing regimen): 28.4%
- Total variability for Cmax (BID dosing regimen): 32.2%
- Dose proportionality: AUC0-24h (AUCtau) ratio for dose ratio (r) = 2 (Day 14, 10 and 20 mg QD): 1.51
- Dose proportionality: Cmax ratio for dose ratio (r) = 2 (Day 14, 10 and 20 mg QD): 1.58
- Dose proportionality: AUC0-12h (AUCtau) ratio for dose ratio (r) = 1.3333 (Day 14, 15 and 20 mg BID): 1.32
- Dose proportionality: Cmax ratio for dose ratio (r) = 1.3333 (Day 14, 15 and 20 mg BID): 1.31
- AUC ratio, point estimate [1]: 2.07
- AUClast ratio, point estimate [1]: 2.11
- Cmax ratio, point estimate [1]: 2.08
- AUC ratio, point estimate [2]: 2.09
- AUClast ratio, point estimate [2]: 2.16
- Cmax ratio, point estimate [2]: 3.60
- AUC ratio, point estimate [3]: 1.01
- AUClast ratio, point estimate [3]: 1.02
- Cmax ratio, point estimate [3]: 1.73
- AUC ratio, point estimate [4]: 4.43
- AUClast ratio, point estimate [4]: 4.56
- Cmax ratio, point estimate [4]: 4.79
- AUC ratio, point estimate [5]: 2.15
- AUClast ratio, point estimate [5]: 2.16
- Cmax ratio, point estimate [5]: 2.31
- AUC ratio, point estimate [6]: 2.12
- AUClast ratio, point estimate [6]: 2.11
- Cmax ratio, point estimate [6]: 1.33
- AUC, GM (Part 1a single 10 mg fasted): 1170 ng·h/mL
- CL/F, GM (Part 1a single 10 mg fasted): 8.56 L/h
- CL/F, mean (Part 1a single 10 mg fasted): 9.11 L/h
- Cmax, GM (Part 1a single 10 mg fasted): 116 ng/mL
- T1/2z, GM (Part 1a single 10 mg fasted): 7.97 h
- T1/2z, mean (Part 1a single 10 mg fasted): 8.22 h
- Tlast, median (Part 1a single 10 mg fasted): 48.0 h
- Tmax, median (Part 1a single 10 mg fasted): 1.02 h
- AUC, GM (Part 1a single 20 mg fasted): 2410 ng·h/mL
- AUC, mean (Part 1a single 20 mg fasted): 2450 ng·h/mL
- AUClast, GM (Part 1a single 20 mg fasted): 2360 ng·h/mL
- AUClast, mean (Part 1a single 20 mg fasted): 2400 ng·h/mL
- CL/F, GM (Part 1a single 20 mg fasted): 8.28 L/h
- CL/F, mean (Part 1a single 20 mg fasted): 8.43 L/h
- Cmax, GM (Part 1a single 20 mg fasted): 241 ng/mL
- T1/2z, GM (Part 1a single 20 mg fasted): 7.48 h
- T1/2z, mean (Part 1a single 20 mg fasted): 7.63 h
- Tlast, median (Part 1a single 20 mg fasted): 48.0 h
- Tmax, median (Part 1a single 20 mg fasted): 1.50 h
- AUC, GM (Part 1a single 30 mg fasted): 2440 ng·h/mL
- AUClast, GM (Part 1a single 30 mg fasted): 2420 ng·h/mL
- CL/F, GM (Part 1a single 30 mg fasted): 12.3 L/h
- CL/F, mean (Part 1a single 30 mg fasted): 13.1 L/h
- Cmax, GM (Part 1a single 30 mg fasted): 417 ng/mL
- T1/2z, GM (Part 1a single 30 mg fasted): 5.70 h
- T1/2z, mean (Part 1a single 30 mg fasted): 5.99 h
- Tlast, median (Part 1a single 30 mg fasted): 48.0 h
- Tmax, median (Part 1a single 30 mg fasted): 1.00 h
- AUC, GM (Part 1a single 40 mg fasted): 5180 ng·h/mL
- AUClast, GM (Part 1a single 40 mg fasted): 5120 ng·h/mL
- CL/F, GM (Part 1a single 40 mg fasted): 7.72 L/h
- CL/F, mean (Part 1a single 40 mg fasted): 8.15 L/h
- Cmax, GM (Part 1a single 40 mg fasted): 555 ng/mL
- T1/2z, GM (Part 1a single 40 mg fasted): 6.29 h
- T1/2z, mean (Part 1a single 40 mg fasted): 6.40 h
- Tlast, median (Part 1a single 40 mg fasted): 48.0 h
- Tmax, median (Part 1a single 40 mg fasted): 1.50 h
- Dose proportionality of exposures (Part 1a, between 10 and 40 mg): no major deviation from dose proportionality; also recorded: increased according to dose proportionality
- AUC, GM (Part 1b single 10 mg fed): 1370 ng·h/mL
- AUClast, GM (Part 1b single 10 mg fed): 1170 ng·h/mL
- CL/F, GM (Part 1b single 10 mg fed): 7.27 L/h
- CL/F, mean (Part 1b single 10 mg fed): 7.63 L/h
- Cmax, GM (Part 1b single 10 mg fed): 111 ng/mL
- Cmax, mean (Part 1b single 10 mg fed): 115 ng/mL
- T1/2z, GM (Part 1b single 10 mg fed): 7.97 h
- T1/2z, mean (Part 1b single 10 mg fed): 8.09 h
- Tlast, median (Part 1b single 10 mg fed): 24.0 h
- Tmax, median (Part 1b single 10 mg fed): 4.24 h
- AUC, GM (Part 1b single 40 mg fed): 4740 ng·h/mL
- AUClast, GM (Part 1b single 40 mg fed): 3960 ng·h/mL
- CL/F, GM (Part 1b single 40 mg fed): 8.43 L/h
- CL/F, mean (Part 1b single 40 mg fed): 8.92 L/h
- Cmax, GM (Part 1b single 40 mg fed): 374 ng/mL
- T1/2z, GM (Part 1b single 40 mg fed): 8.03 h
- T1/2z, mean (Part 1b single 40 mg fed): 8.31 h
- Tlast, median (Part 1b single 40 mg fed): 24.0 h
- Tmax, median (Part 1b single 40 mg fed): 4.5 h
- Mean T1/2z across doses and regimens (Part 2, Day 14): 7.3 to 9.1 h
- Median time to steady state of plasma concentrations (Part 2, after first administration, irrespective of dose or regimen): 1.4 to 2 days
